Data: patent US6608086B2, “Dihydropyridines and new uses thereof” (Synaptic Pharmaceutical Corporation, priority 1993, dated 2003)
Like-named read-outs stand apart in the source and are kept apart here.

What was measured:
[1] = target: T1, L-type calcium channel (Rattus norvegicus, UniProt P22002); assay: Competition binding of [3H]nitrendipine to membrane fragments of rat cardiac muscle
T1 construct: membrane fragments of rat cardiac muscle; from tissue; host or cells: rat cardiac muscle membranes
T1 sequence (P22002 whole entry, other chains not shown, the tested form may be a part): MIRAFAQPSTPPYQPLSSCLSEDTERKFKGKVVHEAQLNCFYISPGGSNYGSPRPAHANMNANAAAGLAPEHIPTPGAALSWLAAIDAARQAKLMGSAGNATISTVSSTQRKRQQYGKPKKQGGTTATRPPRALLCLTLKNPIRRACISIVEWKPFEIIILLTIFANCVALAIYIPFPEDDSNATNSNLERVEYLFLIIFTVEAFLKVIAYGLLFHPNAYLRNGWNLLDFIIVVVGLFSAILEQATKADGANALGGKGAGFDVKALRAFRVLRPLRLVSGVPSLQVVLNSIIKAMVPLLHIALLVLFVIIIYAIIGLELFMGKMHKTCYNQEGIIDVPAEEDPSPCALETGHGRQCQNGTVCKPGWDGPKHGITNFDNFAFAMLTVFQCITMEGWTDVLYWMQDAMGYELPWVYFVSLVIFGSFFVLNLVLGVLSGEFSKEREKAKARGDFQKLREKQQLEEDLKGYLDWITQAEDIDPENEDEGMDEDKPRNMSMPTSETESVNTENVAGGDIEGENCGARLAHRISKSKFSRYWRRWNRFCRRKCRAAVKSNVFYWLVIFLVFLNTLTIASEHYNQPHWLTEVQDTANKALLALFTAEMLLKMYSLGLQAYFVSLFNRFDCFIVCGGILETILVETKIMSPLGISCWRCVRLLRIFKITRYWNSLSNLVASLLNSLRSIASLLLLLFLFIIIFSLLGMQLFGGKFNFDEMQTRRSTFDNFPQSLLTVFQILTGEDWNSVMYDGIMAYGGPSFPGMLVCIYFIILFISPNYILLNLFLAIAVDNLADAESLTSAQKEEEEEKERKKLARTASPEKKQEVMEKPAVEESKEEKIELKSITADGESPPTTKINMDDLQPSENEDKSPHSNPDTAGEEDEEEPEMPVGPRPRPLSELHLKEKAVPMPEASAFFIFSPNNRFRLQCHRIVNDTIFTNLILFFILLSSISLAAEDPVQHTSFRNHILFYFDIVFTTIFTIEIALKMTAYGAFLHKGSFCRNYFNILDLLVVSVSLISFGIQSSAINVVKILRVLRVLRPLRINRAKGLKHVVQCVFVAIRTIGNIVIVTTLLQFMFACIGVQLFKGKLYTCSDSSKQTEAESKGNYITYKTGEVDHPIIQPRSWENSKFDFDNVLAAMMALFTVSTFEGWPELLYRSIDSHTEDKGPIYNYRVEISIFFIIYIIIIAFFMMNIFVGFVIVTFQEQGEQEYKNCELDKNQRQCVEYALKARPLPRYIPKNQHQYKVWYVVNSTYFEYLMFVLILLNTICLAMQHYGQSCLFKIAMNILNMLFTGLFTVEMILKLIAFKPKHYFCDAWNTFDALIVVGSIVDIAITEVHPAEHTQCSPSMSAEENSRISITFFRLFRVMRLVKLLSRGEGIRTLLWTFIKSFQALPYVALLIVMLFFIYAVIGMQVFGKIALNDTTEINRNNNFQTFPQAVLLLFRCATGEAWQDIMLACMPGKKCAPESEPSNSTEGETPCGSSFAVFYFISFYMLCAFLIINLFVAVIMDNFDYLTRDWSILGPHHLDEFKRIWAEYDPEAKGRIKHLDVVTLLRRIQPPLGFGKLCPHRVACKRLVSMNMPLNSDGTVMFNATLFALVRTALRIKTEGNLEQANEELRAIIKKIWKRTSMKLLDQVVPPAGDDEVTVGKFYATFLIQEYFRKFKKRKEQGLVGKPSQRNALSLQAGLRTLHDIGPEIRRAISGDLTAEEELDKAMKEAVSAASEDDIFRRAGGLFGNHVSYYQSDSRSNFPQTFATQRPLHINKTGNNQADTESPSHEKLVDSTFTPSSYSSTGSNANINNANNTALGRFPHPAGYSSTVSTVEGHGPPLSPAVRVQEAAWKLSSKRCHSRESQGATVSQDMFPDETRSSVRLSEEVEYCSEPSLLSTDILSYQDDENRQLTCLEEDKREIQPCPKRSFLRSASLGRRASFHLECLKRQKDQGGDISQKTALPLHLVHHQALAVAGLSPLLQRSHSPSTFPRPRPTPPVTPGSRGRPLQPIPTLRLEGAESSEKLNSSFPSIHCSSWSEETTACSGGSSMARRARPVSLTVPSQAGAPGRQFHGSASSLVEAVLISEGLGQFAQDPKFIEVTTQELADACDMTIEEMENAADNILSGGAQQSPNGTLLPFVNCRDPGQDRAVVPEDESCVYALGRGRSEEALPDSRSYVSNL
T1 sequence (P54290 25-944 partner limits assumed, other chains not shown): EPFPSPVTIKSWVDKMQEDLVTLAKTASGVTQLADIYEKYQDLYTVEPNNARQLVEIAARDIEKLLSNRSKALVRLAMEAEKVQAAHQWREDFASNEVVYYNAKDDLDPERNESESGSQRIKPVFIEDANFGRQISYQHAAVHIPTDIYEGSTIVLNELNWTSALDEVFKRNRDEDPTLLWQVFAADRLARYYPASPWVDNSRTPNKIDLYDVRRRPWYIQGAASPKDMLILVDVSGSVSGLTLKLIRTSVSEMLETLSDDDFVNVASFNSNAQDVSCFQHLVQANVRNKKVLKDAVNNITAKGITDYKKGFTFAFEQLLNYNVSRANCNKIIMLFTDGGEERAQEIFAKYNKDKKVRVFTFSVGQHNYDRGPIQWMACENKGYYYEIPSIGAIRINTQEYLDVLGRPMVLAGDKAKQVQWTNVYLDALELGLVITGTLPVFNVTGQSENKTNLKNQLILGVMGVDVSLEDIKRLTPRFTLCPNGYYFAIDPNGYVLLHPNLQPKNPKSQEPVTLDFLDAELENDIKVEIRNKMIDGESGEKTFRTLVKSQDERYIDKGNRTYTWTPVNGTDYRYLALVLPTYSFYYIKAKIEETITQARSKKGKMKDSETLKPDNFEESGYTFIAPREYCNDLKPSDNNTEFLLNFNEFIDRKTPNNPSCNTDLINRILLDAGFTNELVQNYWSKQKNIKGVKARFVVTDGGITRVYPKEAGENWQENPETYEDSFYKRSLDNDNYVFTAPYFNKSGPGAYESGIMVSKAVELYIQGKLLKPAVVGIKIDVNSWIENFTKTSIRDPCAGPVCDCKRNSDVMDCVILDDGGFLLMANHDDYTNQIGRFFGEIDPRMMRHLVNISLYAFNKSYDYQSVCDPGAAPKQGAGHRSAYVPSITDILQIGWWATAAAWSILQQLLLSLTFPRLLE
T1 sequence (P54290 945-1091 partner limits assumed, other chains not shown): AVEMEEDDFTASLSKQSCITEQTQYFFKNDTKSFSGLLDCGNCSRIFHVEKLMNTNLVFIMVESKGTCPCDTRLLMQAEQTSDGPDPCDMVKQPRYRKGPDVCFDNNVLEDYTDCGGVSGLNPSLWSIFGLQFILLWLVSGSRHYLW

[2] = target: T2, α2C receptor (Homo sapiens, UniProt P18825); assay: Competition binding, [3H]rauwolscine, human α2C receptor
T2 construct: host or cells: LM(tk-) cells, line L-α2C
T2 sequence (P18825 1-462): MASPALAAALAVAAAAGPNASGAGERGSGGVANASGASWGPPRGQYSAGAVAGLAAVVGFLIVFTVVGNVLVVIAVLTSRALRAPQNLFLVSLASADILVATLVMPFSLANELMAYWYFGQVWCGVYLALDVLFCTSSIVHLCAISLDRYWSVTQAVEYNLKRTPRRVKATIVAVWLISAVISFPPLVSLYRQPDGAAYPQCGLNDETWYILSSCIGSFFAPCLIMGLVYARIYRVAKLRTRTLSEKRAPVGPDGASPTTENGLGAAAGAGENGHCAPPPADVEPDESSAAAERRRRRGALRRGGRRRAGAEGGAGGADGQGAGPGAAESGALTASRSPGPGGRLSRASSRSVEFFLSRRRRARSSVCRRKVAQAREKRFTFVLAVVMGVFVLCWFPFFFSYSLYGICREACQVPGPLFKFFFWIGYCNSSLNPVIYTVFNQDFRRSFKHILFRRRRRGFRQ
Procedure, shortened: (§1)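 Equilibrium displacement of [3H]rauwolscine (0.5 nM) measured on membranes from stably transfected LM(tk−) lines, one per α2 subtype, in glycylglycine buffer at pH 7.6. Nonspecific binding set by 10 μM phentolamine; separation by filtration.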

[3] = target: T3, α2A receptor (Homo sapiens, UniProt P08913); assay: Competition binding, [3H]rauwolscine, human α2A receptor
T3 construct: host or cells: LM(tk-) cells, line L-α2A
T3 sequence (P08913 1-465): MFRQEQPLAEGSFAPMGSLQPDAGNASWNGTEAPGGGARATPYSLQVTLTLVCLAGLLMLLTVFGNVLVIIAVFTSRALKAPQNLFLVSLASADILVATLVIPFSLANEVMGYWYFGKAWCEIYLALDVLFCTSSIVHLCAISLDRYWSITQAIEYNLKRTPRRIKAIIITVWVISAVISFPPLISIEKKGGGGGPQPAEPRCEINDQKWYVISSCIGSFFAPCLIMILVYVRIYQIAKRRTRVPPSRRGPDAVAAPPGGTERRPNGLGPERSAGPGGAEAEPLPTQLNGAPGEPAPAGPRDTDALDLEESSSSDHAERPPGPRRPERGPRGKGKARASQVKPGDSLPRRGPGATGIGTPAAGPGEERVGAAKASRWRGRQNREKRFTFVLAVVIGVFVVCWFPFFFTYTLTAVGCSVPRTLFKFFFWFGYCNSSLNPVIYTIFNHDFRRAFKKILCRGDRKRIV
Procedure, shortened: as §1

[4] = target: T4, α2B receptor (Homo sapiens, UniProt P18089); assay: Competition binding, [3H]rauwolscine, human α2B receptor; conditions: pKi alpha-2 2b
T4 construct: host or cells: LM(tk-) cells, line L-NGC-α2B
T4 sequence (P18089 1-450): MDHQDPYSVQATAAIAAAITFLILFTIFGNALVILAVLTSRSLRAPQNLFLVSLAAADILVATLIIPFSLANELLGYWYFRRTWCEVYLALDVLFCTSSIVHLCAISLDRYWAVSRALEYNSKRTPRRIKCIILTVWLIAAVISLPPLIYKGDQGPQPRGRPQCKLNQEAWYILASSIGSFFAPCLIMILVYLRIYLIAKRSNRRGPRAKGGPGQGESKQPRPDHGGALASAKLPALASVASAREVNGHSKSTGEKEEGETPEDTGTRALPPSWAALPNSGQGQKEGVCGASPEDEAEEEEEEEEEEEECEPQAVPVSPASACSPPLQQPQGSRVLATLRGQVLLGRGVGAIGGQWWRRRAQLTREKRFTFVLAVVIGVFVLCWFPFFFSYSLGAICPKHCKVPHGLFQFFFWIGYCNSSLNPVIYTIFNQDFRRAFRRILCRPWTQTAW
Procedure, shortened: as §1

[5] = [3H]nitrendipine, rat cardiac muscle membranes, SEM and n in lines below, read-out: pKi Ca (converted)
[6] = [3H]rauwolscine, LM(tk-) cell line L-α2C, SEM and n in lines below, read-out: pKi alpha-2 2c (converted)
[7] = [3H]rauwolscine, LM(tk-) cell line L-α2A, SEM and n in lines below, read-out: pKi alpha-2 2a (converted)
[8] = [3H]rauwolscine, LM(tk-) cell line L-NGC-α2B, SEM and n in lines below

| SMILES | Ki ([1]; pKi Ca) [nM] | Ki ([2]; pKi alpha-2 2c) [nM] | Ki [3] [nM] | Ki [4] [nM] | Ki [1, 5] [nM] | Ki [2, 6] [nM] | Ki [3, 7] [nM] | Ki [4, 8] [nM] |
| --- | --- | --- | --- | --- | --- | --- | --- | --- |
| COC(=O)C1=C(C)NC(C)=C(C(=O)NCCCN2CCC(c3ccccc3)(c3ccccc3)CC2)C1c1ccc(-c2ccccc2)cc1 (stereo not shown) [Example 7] | 871 | 1230 | 3800 | 1620 | – | – | – | – |
| COC(=O)C1=C(C)NC(C)=C(C(=O)NCCCN2CCC(c3ccccc3)(c3ccccc3)CC2)C1Cc1ccccc1 (stereo not shown) [Example 8, 4-Benzyl-1,4-dihydro-3-methoxycarbonyl-2,6-dimethyl-5-(N-(3-(4,4-diphenylpiperidin-1-yl)propyl)carboxamido)pyridine] | – | – | – | – | 11500 | 339 | 832 | 1860 |
| COC(=O)C1=C(C)NC(C)=C(C(=O)NCCCN2CCC(c3ccccc3)(c3ccccc3)CC2)C1c1cc[n+]([O-])cc1 (stereo not shown) [Example 9, 1,4-Dihydro-3-methoxycarbonyl-2,6-Dimethyl-4-(1-oxido-4-pyridyl)-5-(N-(3-(4,4-diphenylpiperidin-1-yl)propyl)carboxamido)pyridine] | – | – | – | – | 19100 | 1320 | 2190 | 550 |
| COC(=O)C1=C(C)NC(C)=C(C(=O)NCCCN2CCC(c3ccccc3)(c3ccccc3)CC2)C1c1ccc(Cl)cc1 (stereo not shown) [Example 10, 4-(4-Chlorophenyl)-1,4-dihydro-5-methoxycarbonyl-2,6-Dimethyl-5-(N-(3-(4,4-diphenylpiperidin-1-yl)propyl)carboxamido)pyridine] | 7590 | 1230 | 2340 | 3310 | – | – | – | – |
| COC(=O)C1=C(C)NC(C)=C(C(=O)NCCCN2CCC(c3ccccc3)(c3ccccc3)CC2)C1c1ccc2c(c1)OCO2 (stereo not shown) [Example 11, 1,4-Dihydro-3-methoxycarbonyl-2,6-dimethyl-4-(3,4-methylenedioxyphenyl)-5-(N-(3-(4,4-diphenylpiperidin-1-yl)propyl)carboxamido)pyridine] | 2290 | 575 | 1120 | 871 | – | – | – | – |
| COC(=O)C1=C(C)NC(C)=C(C(=O)NCCCN2CCC(c3ccccc3)(c3ccccc3)CC2)C1c1ccc(C#N)cc1 (stereo not shown) [Example 12, 4-(4-Cyanophenyl)-1,4-dihydro-3-methoxycarbonyl-2,6-dimethyl-5-(N-(3-(4,4-diphenylpiperidin-1-yl)propyl)carboxamido)pyridine] | 3800 | 871 | 776 | 1260 | – | – | – | – |
| COC(=O)C1=C(C)NC(C)=C(C(=O)NCCCN2CCC(c3ccccc3)(c3ccccc3)CC2)C1c1ccc(I)cc1 (stereo not shown) [Example 13, 1,4-Dihydro-4-(4-iodophenyl)-3-methoxycarbonyl-2,6-dimethyl-5-(N-(3-(4,4-diphenylpiperidin-1-yl)propyl)carboxamido)pyridine] | 8910 | 646 | 1260 | 1740 | – | – | – | – |
| COC(=O)C1=C(C)NC(C)=C(C(=O)NCCCN2CCC(c3ccccc3)(c3ccccc3)CC2)C1c1ccc(Br)cc1 (stereo not shown) [Example 15, 4-(4-Bromophenyl)-1,4-dihydro-3-methoxycarbonyl-2,6-dimethyl-5-(N-(3-(4,4-diphenylpiperidin-1-yl)propyl)carboxamido)pyridine] | 7240 | 1120 | 2450 | 3390 | – | – | – | – |
| COC(=O)C1=C(C)NC(C)=C(C(=O)NCCCN2CCC(c3ccccc3)(c3ccccc3)CC2)C1c1ccc(Cl)c([N+](=O)[O-])c1 (stereo not shown) [Example 16, 4-(4-Chloro-3-nitrophenyl)-1,4-dihydro-3-methoxycarbonyl-2,6-dimethyl-5-(N-(3-(4,4-diphenylpiperidin-1-yl)propyl)carboxamido)pyridine] | 813 | 380 | 1120 | 1820 | – | – | – | – |
| COC(=O)C1=C(C)NC(C)=C(C(=O)NCCCN2CCC(c3ccccc3)(c3ccccc3)CC2)C1c1ccc(C(C)C)cc1 (stereo not shown) [Example 18, 1,4-Dihydro-4-(4-isopropylphenyl)-3-methoxycarbonyl-2,6-dimethyl-5-(N-(3-(4,4-diphenylpiperidin-1-yl)propyl)carboxamido)pyridine] | 162 | 933 | 2140 | 1620 | – | – | – | – |
| COC(=O)C1=C(C)NC(C)=C(C(=O)NCCCN2CCC(c3ccccc3)(c3ccccc3)CC2)C1c1ccc(C)cc1 (stereo not shown) [Example 19, 1,4-Dihydro-3-methoxycarbonyl-1,6-dimethyl-4-(4-methylphenyl)-5-(N-(3-(4,4-diphenylpiperidin-1-yl)propyl)carboxamido)pyridine] | 7410 | 417 | 1290 | 912 | – | – | – | – |
| COC(=O)C1=C(C)NC(C)=C(C(=O)NCCCN2CCC(c3ccccc3)(c3ccccc3)CC2)C1c1ccc(F)cc1 (stereo not shown) [Example 20, 4-(4-Fluorophenyl)-1,4-dihydro-3-methoxycarbonyl-2,6-dimethyl-5-(N-(3-(4,4-diphenylpiperidin-1-yl)propyl)carboxamido)pyridine] | 1150 | 813 | 1780 | 1320 | – | – | – | – |
| COC(=O)C1=C(C)NC(C)=C(C(=O)NCCCN2CCC(c3ccccc3)(c3ccccc3)CC2)C1c1ccc(OC)cc1 (stereo not shown) [Example 21, 1,4-Dihydro-3-methoxycarbonyl-4-(4-Methoxyphenyl)-2,6-dimethyl-5-(N-(3-(4,4-diphenylpiperidin-1-yl)propyl)carboxamido)pyridine] | 1000 | 776 | 2090 | 1070 | – | – | – | – |
| COC(=O)C1=C(C)NC(C)=C(C(=O)NCCCN2CCC(c3ccccc3)(c3ccccc3)CC2)C1c1ccc2ccccc2c1 (stereo not shown) [Example 22] | 372 | 631 | 1580 | 912 | – | – | – | – |
| COC(=O)C1=C(C)NC(C)=C(C(=O)NCCCN2CCC(c3ccccc3)(c3ccccc3)CC2)C1c1ccoc1 (stereo not shown) [Example 23, 4-(3-Furyl)-1,4-dihydro-3-methoxycarbonyl-2,6-dimethyl-5-(N-(3-(4,4-diphenylpiperidin-1-yl)propyl)carboxamide)pyridine] | – | – | – | – | 288 | 468 | 955 | 562 |
| COC(=O)C1=C(C)NC(C)=C(C(=O)NCCCN2CCC(c3ccccc3)(c3ccccc3)CC2)C1c1ccc(Cl)c(Cl)c1 (stereo not shown) [Example 24, 4-(3,4-Dichlorophenyl)-1,4-dihydro-3-methoxycarbonyl-2,6-dimethyl-5-(3-(D 44-diphenylpiperidin-1-yl)propylcarboxamido)pyridine] | 1950 | 158 | 912 | 1260 | – | – | – | – |
| COC(=O)C1=C(C)NC(C)=C(C(=O)NCCCN2CCC(c3ccccc3)(c3ccccc3)CC2)C1c1ccc(C(=O)OC)cc1 (stereo not shown) [Example 25, 1,4-Dihydro-3-methoxycarbonyl-4-(4-methoxycarbonylphenyl)-2,6-dimethyl-5-(N-(3-(4,4-diphenylpiperidin-1-yl)propyl)carboxamide)pyridine] | 1150 | 1020 | 1510 | 501 | – | – | – | – |
| COC(=O)C1=C(C)NC(C)=C(C(=O)NCCCN2CCC(c3ccccc3)(c3ccccc3)CC2)C1c1ccc(OC)c(OC)c1 (stereo not shown) [Example 26] | 87.1 | 1480 | 2140 | 977 | – | – | – | – |
| COC(=O)C1=C(C)NC(C)=C(C(=O)NCCCN2CCC(c3ccccc3)(c3ccccc3)CC2)C1c1cc(OC)c(OC)c(OC)c1 (stereo not shown) [Example 27] | 589 | 1200 | 1950 | 1050 | – | – | – | – |
